How the values were obtained:
Adenosine receptor A2a = Adenosine receptor A2a (Cavia porcellus, UniProt P46616)
Adenosine receptor A2b = molecular target: T1, Adenosine receptor A2b (Bos taurus, UniProt Q1LZD0)
T1 sequence (Q1LZD0 whole entry): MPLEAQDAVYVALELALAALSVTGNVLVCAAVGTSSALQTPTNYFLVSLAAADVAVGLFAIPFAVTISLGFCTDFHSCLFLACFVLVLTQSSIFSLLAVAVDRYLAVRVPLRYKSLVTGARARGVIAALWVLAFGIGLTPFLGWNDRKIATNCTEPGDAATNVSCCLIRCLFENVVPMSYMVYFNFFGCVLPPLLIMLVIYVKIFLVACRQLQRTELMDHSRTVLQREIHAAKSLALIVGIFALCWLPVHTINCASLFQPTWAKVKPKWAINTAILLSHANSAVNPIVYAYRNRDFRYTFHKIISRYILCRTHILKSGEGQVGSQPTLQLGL

Adenosine receptor A1 [1] = molecular target: T2, Adenosine receptor A1 (Cavia porcellus, UniProt P47745)
T2 sequence (P47745 whole entry): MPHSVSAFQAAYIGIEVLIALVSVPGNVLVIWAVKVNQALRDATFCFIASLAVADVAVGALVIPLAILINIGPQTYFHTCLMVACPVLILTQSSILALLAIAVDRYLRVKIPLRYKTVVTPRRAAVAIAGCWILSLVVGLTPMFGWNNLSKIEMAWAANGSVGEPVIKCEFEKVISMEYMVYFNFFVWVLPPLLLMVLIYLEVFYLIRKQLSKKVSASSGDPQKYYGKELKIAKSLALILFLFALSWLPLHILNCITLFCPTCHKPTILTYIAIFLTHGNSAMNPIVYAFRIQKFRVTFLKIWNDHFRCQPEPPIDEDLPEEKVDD

Adenosine receptor A1 [2] = molecular target: T3, Adenosine receptor A1 (Bos taurus, UniProt P28190)
T3 sequence (P28190 whole entry): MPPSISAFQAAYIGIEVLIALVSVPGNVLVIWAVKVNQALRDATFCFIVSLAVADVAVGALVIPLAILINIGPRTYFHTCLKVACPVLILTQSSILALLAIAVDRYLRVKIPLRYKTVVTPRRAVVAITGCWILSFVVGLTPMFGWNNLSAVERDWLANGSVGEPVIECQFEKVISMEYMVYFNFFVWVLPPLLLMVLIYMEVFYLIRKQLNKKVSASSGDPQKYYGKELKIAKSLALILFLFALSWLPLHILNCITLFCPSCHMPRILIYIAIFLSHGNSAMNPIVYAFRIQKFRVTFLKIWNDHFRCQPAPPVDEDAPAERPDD

Chain of Adenosine receptor A2a (P46616 whole entry): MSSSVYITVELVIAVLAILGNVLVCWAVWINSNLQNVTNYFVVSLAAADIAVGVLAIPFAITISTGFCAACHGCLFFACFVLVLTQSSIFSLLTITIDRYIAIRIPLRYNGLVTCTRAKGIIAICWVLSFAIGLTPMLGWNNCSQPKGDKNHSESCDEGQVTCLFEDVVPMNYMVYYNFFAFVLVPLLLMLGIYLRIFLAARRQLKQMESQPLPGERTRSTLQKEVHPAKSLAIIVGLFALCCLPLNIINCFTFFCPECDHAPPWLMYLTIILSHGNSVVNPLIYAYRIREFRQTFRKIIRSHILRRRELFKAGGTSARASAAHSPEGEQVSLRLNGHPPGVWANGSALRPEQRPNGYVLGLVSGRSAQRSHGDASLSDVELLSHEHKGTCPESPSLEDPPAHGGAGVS

SMILES	Ki (Adenosine receptor A2a) [µM]	Ki (Adenosine receptor A2b) [µM]	Ki (Adenosine receptor A1 [1]) [µM]	Ki (Adenosine receptor A1 [2]) [µM]
Nc1nc(Cl)nc2c1ncn2[C@@H]1O[C@H](CO)[C@@H](O)[C@H]1O [2-CI Adenosine]	> 10	6.92	–	–
CC(Cc1ccccc1)Nc1ncnc2c1ncn2C1OC(CO)C(O)C1O (centres undefined) [R-N6-(2-phenylisopropyl) adenosine]	–	–	1.95	0.0182

— BindingDB's records for PubMed 8386236 (Whitby Research, 1993)
